Data taken from patent publication US7901893B2, “NPC1L1 (NPC3) and methods of identifying ligands thereof” (Merck Sharp & Dohme Corp., priority 2004, dated 2011).

Key:
[1] = biological target: T1, CHO cells expressing SR-B1 (Mus musculus, UniProt Q61009); test: Cholesterol uptake assay (Example 4); format: cell-based; details: 10 μM ezetimibe
T1 construct: expressed in transfected cells; host or cells: CHO cells
T1 sequence (Q61009 1-509): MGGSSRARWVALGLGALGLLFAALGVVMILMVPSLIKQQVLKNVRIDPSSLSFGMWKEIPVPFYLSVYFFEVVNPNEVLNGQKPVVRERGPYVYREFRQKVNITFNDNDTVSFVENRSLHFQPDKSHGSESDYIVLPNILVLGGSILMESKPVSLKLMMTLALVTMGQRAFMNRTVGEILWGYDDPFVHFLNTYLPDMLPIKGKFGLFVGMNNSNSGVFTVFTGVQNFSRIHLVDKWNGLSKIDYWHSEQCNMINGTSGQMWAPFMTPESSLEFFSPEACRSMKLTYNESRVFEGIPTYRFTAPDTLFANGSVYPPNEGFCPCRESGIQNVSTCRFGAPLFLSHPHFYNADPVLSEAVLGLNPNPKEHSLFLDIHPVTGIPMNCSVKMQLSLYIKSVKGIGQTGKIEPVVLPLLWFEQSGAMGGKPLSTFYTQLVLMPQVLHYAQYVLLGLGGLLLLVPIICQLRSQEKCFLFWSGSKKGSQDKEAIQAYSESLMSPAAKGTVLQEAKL
Protocol: CHO cells expressing either SR-B1 or three different clones of rat NPC1L1 or one clone of mouse NPC1L1 were starved overnight in cholesterol free media then dosed with [3H]-cholesterol in a mixed synthetic micelle emulsion for 4 min, 8 min, 12 min or 24 m in the absence or presence of 10 µM ezetimibe. The cells were harvested and the lipids were organically extracted. The extracted lipids were spotted on thin-layer chromatography (TLC) plates and resolved within an organic vapor phase. The free cholesterol bands for each assay were isolated and counted in a scintillation counter.

[2] = biological target: T2, mouse SR-B1 (Mus musculus, UniProt Q61009); test: Effect of ezetimibe on cholesterol uptake, SR-B1 transfected CHO cells; format: cell-based; details: EZ (10 μM), SR-BI
T2 construct: expressed in transfected cells
T2 sequence (Q61009 1-509): T1 sequence (Q61009 1-509)
Protocol: (§1) The effect of ezetimibe on the ability of CHO cells stably transfected with mouse or rat NPC1L1 or mouse SR-B1 to take up ^3H-labeled cholesterol was evaluated in pulse-chase experiments. One cDNA clone of mouse NPC1L1 (C7) and three clones of rat NPC1L1 (C7, C17 and C21) were evaluated. The ability of CHO cells stably transfected with mouse SR-B1, mouse NPC1L1 and rat NPC1L1 to take up labeled cholesterol, in the absence of ezetimibe, was also evaluated in the pulse-chase experiments. Data generated in these experiments are set forth, below, in Tables 4 and 5. Additionally, the quantity of total cholesterol taken up by transfected and untransfected CHO cells in the presence of four different unlabeled cholesterol concentrations was also evaluated.
(§2) Starve. The maintenance media (F12 HAMS, 1% Pen/Strep, 10% FCS) was removed and the cells were rinsed with serum-free HAMS media. The serum-free media was then replaced with 1 mL “starve” media (F12 HAMS, Pen/Strep, 5% lipoprotein deficient serum (LPDS). The cells were then starved overnight.
(§3) Pre-Incubation/pre-dose. Media was removed from all plates and replaced with fresh starve media and preincubated for 30 minutes. Half of the wells received media containing ezetimibe (stock soln in EtOH; final conc.=10 μM).
(§4) ^3H-Cholesterol Pulse. The following was added directly to each well: • 0.5 μCi ^3H-cholesterol (˜1.1×10^6 dpm/well) in 50 μl of a mixed bile salt micelle • 4.8 mM sodium taurocholate (2.581 mg/mL) • 0.6 mM sodium oleate (0.183 mg/mL) • 0.25 mM cholesterol (0.1 mg/mL) • Dispersed in “starve” media by ultrasonic vibration • Final media cholesterol concentration=5 μg/mL
(§5) Labeled cholesterol pulse time points were 4, 12, 24 minutes and 4 hours. Triplicate wells were prepared for each treatment.
(§6) Wash. At designated times, media was aspirated and cells were washed once with Hobbs Buffer A (50 mM Tris, 0.9% NaCl, 0.2% bovine serum albumin (BSA), pH 7.4) and once with Hobbs Buffer B (50 mM Tris, 0.9% NaCl, pH 7.4 (no BSA)) at 37° C.
(§7) A. 4, 12, 24 minute time points: Cells were digested overnight with 0.2N NaOH, 2 mL/well, room temperature. One 1.5 mL aliquot was removed from each well, neutralized & counted for radioactivity by scintillation counting.
(§8) B. 4 hour time point: The digested cells were analyzed by thin-layer chromatography to determine the content of cholesterol ester in the cells.
(§9) Extracts were spotted onto TLC plates and run for 30 minutes in 2 ml hexane:isopropanol (3:2) mobile phase for 30 minutes, followed by a second run in 1 ml hexane:isopropanol (3:2) mobile phase for 15 minutes.
(§10) C. Protein determination of cell extracts. Plates containing a sample of the cell extracts were placed on orbital shaker at 120 rpm for indicated times and then extracts are pooled into 12×75 tubes. Plates were dried and NaOH (2 ml/well) added. The protein content of the samples were then determined. Two additional 50 μl aliquots from all wells were assayed for total protein by the Pierce micro BCA method. The quantity of labeled cholesterol observed in the cells was normalized to the quantity of protein in the cells.

[3] = test system: cholesterol absorption; details: mouse; cited from earlier work
[4] = biological target: rat NPC1L1 (Rattus norvegicus, UniProt Q6T3U3); test: Effect of ezetimibe on cholesterol uptake, rat NPC1L1 transfected CHO cells; format: cell-based; design: expressed in transfected cells; pCDNA3); details: EZ (10 μM); for Cholesteryl Ester, dpm ± sem / Cholesteryl Ester, dpm/mg protein ± sem / Free Cholesterol, dpm ± sem / Free Cholesterol, dpm/mg protein ± sem: 4 Hour Pulse
Protocol: as §1, §2, §3, §4, §5, §6, §7, §8, §9, §10

O=C1[C@H](CC[C@H](O)c2ccc(F)cc2)[C@@H](c2ccc(O)cc2)N1c1ccc(F)cc1 [ezetimibe]
[^3H]-cholesterol uptake [1]: inhibited
Cholesteryl Ester, dpm ± sem ([2]; 4 Hour Pulse): 9305 ± 401 dpm
Cholesteryl Ester, dpm/mg protein ± sem ([2]; 4 Hour Pulse): 72782 ± 3181 dpm/mg protein
Free Cholesterol, dpm ± sem ([2]; 4 Hour Pulse): 194519 ± 474 dpm
Free Cholesterol, dpm/mg protein ± sem ([2]; 4 Hour Pulse): 1521341 ± 4185 dpm/mg protein
Total Cholesterol, dpm ± sem ([2]; 4 Min Pulse): 10968 ± 821 dpm
Total Cholesterol, dpm/mg protein ± sem ([2]; 4 Min Pulse): 92474 ± 2902 dpm/mg protein
Total Cholesterol, dpm ± sem ([2]; 12 Min Pulse): 12349 ± 298 dpm
Total Cholesterol, dpm/mg protein ± sem ([2]; 12 Min Pulse): 98956 ± 4447 dpm/mg protein
Total Cholesterol, dpm ± sem ([2]; 24 Min Pulse): 23558 ± 1310 dpm
Total Cholesterol, dpm/mg protein ± sem ([2]; 24 Min Pulse): 198725 ± 11713 dpm/mg protein
potency (ED50) in vivo [3]: 0.5 mpk
Cholesteryl Ester, dpm ± sem ([4]; rNPC1L1(C7)): 191 ± 54 dpm
Cholesteryl Ester, dpm/mg protein ± sem ([4]; rNPC1L1(C7)): 1496 ± 403 dpm/mg protein
Free Cholesterol, dpm ± sem ([4]; rNPC1L1(C7)): 70628 ± 212 dpm
Free Cholesterol, dpm/mg protein ± sem ([4]; rNPC1L1(C7)): 556855 ± 7481 dpm/mg protein
Cholesteryl Ester, dpm ± sem ([4]; rNPC1L1(C17)): 202 ± 10 dpm
Cholesteryl Ester, dpm/mg protein ± sem ([4]; rNPC1L1(C17)): 1510 ± 62 dpm/mg protein
Free Cholesterol, dpm ± sem ([4]; rNPC1L1(C17)): 71646 ± 446 dpm
Free Cholesterol, dpm/mg protein ± sem ([4]; rNPC1L1(C17)): 536651 ± 7146 dpm/mg protein
Cholesteryl Ester, dpm ± sem ([4]; rNPC1L1(C21)): 454 ± 33 dpm
Cholesteryl Ester, dpm/mg protein ± sem ([4]; rNPC1L1(C21)): 3193 ± 265 dpm/mg protein
Free Cholesterol, dpm ± sem ([4]; rNPC1L1(C21)): 69106 ± 711 dpm
Free Cholesterol, dpm/mg protein ± sem ([4]; rNPC1L1(C21)): 485460 ± 4410 dpm/mg protein
Total Cholesterol, dpm ± sem ([4]; 4 Min Pulse, rNPC1L1(C7)): 3268 ± 121 dpm
Total Cholesterol, dpm/mg protein ± sem ([4]; 4 Min Pulse, rNPC1L1(C7)): 27285 ± 968 dpm/mg protein
Total Cholesterol, dpm ± sem ([4]; 4 Min Pulse, rNPC1L1(C17)): 3676 ± 134 dpm
Total Cholesterol, dpm/mg protein ± sem ([4]; 4 Min Pulse, rNPC1L1(C17)): 28675 ± 527 dpm/mg protein
Total Cholesterol, dpm ± sem ([4]; 4 Min Pulse, rNPC1L1(C21)): 3769 ± 147 dpm
Total Cholesterol, dpm/mg protein ± sem ([4]; 4 Min Pulse, rNPC1L1(C21)): 27098 ± 689 dpm/mg protein
Total Cholesterol, dpm ± sem ([4]; 12 Min Pulse, rNPC1L1(C7)): 4664 ± 63 dpm
Total Cholesterol, dpm/mg protein ± sem ([4]; 12 Min Pulse, rNPC1L1(C7)): 38581 ± 784 dpm/mg protein
Total Cholesterol, dpm ± sem ([4]; 12 Min Pulse, rNPC1L1(C17)): 4579 ± 257 dpm
Total Cholesterol, dpm/mg protein ± sem ([4]; 12 Min Pulse, rNPC1L1(C17)): 34063 ± 1619 dpm/mg protein
Total Cholesterol, dpm ± sem ([4]; 12 Min Pulse, rNPC1L1(C21)): 4703 ± 231 dpm
Total Cholesterol, dpm/mg protein ± sem ([4]; 12 Min Pulse, rNPC1L1(C21)): 33985 ± 1928 dpm/mg protein
Total Cholesterol, dpm ± sem ([4]; 24 Min Pulse, rNPC1L1(C7)): 7829 ± 204 dpm
Total Cholesterol, dpm/mg protein ± sem ([4]; 24 Min Pulse, rNPC1L1(C7)): 63482 ± 368 dpm/mg protein
Total Cholesterol, dpm ± sem ([4]; 24 Min Pulse, rNPC1L1(C17)): 8192 ± 237 dpm
Total Cholesterol, dpm/mg protein ± sem ([4]; 24 Min Pulse, rNPC1L1(C17)): 62279 ± 4352 dpm/mg protein
Total Cholesterol, dpm ± sem ([4]; 24 Min Pulse, rNPC1L1(C21)): 8760 ± 293 dpm
Total Cholesterol, dpm/mg protein ± sem ([4]; 24 Min Pulse, rNPC1L1(C21)): 66165 ± 2181 dpm/mg protein
